According to patent US10633419B2, “Immunomodulators” (BRISTOL-MYERS SQUIBB COMPANY, priority 2014, dated 2020):
Starred links: 1 amine or outer side, 2 acyl side, 3 side chain; linkers in the order of their positions; H or OH if unused. Positions of bridges follow the written chain, without caps; N, C: chain ends. Non-standard residues stand in square brackets, D forms with d. Residues, ends and D or L forms follow the SMILES beside them. Groups on a side chain read outwards from the residue. *: point of attachment. X13 = O=C(O)CCCCCCCCCCCCCCC(=O)N[C@@H](CCC(=O)NCCCOCCOCCOCCCN*)C(=O)O; Ala(1-CH2COOH-inden-3-yl) = N[C@@H](CC1=CC(CC(=O)O)c2ccccc21)C(=O)O; Trp(1-CH2COOH) = N[C@@H](Cc1cn(CC(=O)O)c2ccccc12)C(=O)O; C18 diacid = O=C(O)CCCCCCCCCCCCCCCCC(=O)*; Phe(4-F) = N[C@@H](Cc1ccc(F)cc1)C(=O)O; γGlu = O=C(O)[C@H](CCC(=O)[*:2])N[*:1]; d(cisHyp) = O=C(O)[C@H]1C[C@@H](O)CN1; Gly(octyl) = CCCCCCCC[C@H](N)C(=O)O; Hyp = O=C(O)[C@@H]1C[C@@H](O)CN1; Myristoyl = CCCCCCCCCCCCCC(=O)*; NMeNle = CCCC[C@H](NC)C(=O)O; Pip = O=C(O)[C@@H]1CCCCN1; NMeA = CN[C@@H](C)C(=O)O; Aun = NCCCCCCCCCCC(=O)O; Dab = NCC[C@H](N)C(=O)O; Dap = NC[C@H](N)C(=O)O

These molecules were tested against T1, PD-L1 (Homo sapiens, UniProt Q9NZQ7) (assay: PD-1/PD-L1 Homogenous Time-Resolved Fluorescence (HTRF) binding assay (PD-1-Ig/PD-L1-His)). Settings: inhibition of PD-1-Ig binding to PD-L1-TVMV-His; value given as number; read-out: HTRF IC50.
T1 construct: hPDL1(19-239)-TVMV-His; made in house; host or cells: HEK293T
T1 sequence (Q9NZQ7 with tags, fused parts or gaps): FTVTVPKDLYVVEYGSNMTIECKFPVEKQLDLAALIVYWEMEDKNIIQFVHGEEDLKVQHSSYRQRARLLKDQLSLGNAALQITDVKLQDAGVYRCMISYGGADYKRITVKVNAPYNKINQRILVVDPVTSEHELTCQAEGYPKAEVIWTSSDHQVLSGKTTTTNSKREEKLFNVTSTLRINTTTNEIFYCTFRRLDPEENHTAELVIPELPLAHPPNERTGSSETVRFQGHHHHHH
Method in brief: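 HTRF competition in dPBS with 0.1% BSA and 0.05% Tween-20: 20 nM PD-1-Ig added after 15 min compound pre-incubation with 10 nM PD-L1-His, then another 15 min. Signal (665/620 nm) after 30 min with APC anti-His (20 nM) and Eu anti-Ig (1 nM).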

| IC50 | Structure (SMILES) |
| --- | --- |
| 0.0135 µM | CCCC[C@H]1C(=O)N(C)[C@@H](CCCC)C(=O)N[C@@H](CC(C)C)C(=O)N[C@H](C(=O)NCC(=O)NCC(=O)NCC(=O)NCCCCCCCCCCC(=O)O)CSCC(=O)N[C@@H](Cc2ccc(O)cc2)C(=O)N(C)[C@@H](C)C(=O)N[C@@H](CCC(=O)O)C(=O)N2CCC[C@H]2C(=O)N[C@@H](Cc2cnc[nH]2)C(=O)N[C@@H](CCCCN)C(=O)N2C[C@H](O)C[C@H]2C(=O)N[C@@H](Cc2c[nH]c3ccccc23)C(=O)N[C@@H](CCCCN)C(=O)N[C@@H](Cc2cn(CC(=O)O)c3ccccc23)C(=O)N1C [Example 11092] ({CH2CO}-Y[NMeA]EPHK[Hyp]WK[Trp(1-CH2COOH)][NMeNle][NMeNle]LCGGG[Aun]-OH; thioether N-14) |
| 0.0209 µM | CCCC[C@H]1C(=O)N(C)[C@@H](CCCC)C(=O)N[C@@H](CC(C)C)C(=O)N[C@H](C(=O)NCC(=O)N[C@@H](CCNC(=O)CC[C@H](NC(=O)CCCCCCCCCCCCCCCCC(=O)O)C(=O)O)C(=O)O)CSCC(=O)N[C@@H](Cc2ccc(F)cc2)C(=O)N2CCCC[C@H]2C(=O)N[C@@H](CC(=O)O)C(=O)N2CCC[C@H]2C(=O)N[C@@H](CN)C(=O)N[C@@H](CC(C)C)C(=O)N2C[C@H](O)C[C@H]2C(=O)N[C@@H](Cc2c[nH]c3ccccc23)C(=O)N[C@@H](CCN)C(=O)N[C@@H](Cc2cn(CC(=O)O)c3ccccc23)C(=O)N1C [Example 13150] ({CH2CO}-[Phe(4-F)][Pip]DP[Dap]L[Hyp]W[Dab][Trp(1-CH2COOH)][NMeNle][NMeNle]LCG[Dab]([γGlu-C18 diacid])-OH; thioether N-14) |

Same assay, conditions: inhibition of PD-1-Ig binding to PD-L1-TVMV-His; value given as range class; read-out: HTRF IC50

| IC50 | Structure (SMILES) |
| --- | --- |
| 0.1 to 1.6 µM | CCCC[C@H]1C(=O)N(C)[C@@H](CCCC)C(=O)N[C@@H](CC(C)C)C(=O)N[C@H](C(=O)NCCCOCCOCCOCCCNC(=O)CC[C@H](NC(=O)CCCCCCCCCCCCCCC(=O)O)C(=O)O)CSCC(=O)N[C@@H](Cc2ccc(O)cc2)C(=O)N(C)[C@@H](C)C(=O)N[C@@H](CC(N)=O)C(=O)N2CCC[C@H]2C(=O)N[C@@H](CN)C(=O)N[C@@H](CC(C)C)C(=O)N2C[C@H](O)C[C@@H]2C(=O)N[C@@H](Cc2c[nH]c3ccccc23)C(=O)N[C@@H](CCN)C(=O)N[C@@H](Cc2cn(CC(=O)O)c3ccccc23)C(=O)N1C [Example 11161] ({CH2CO}-Y[NMeA]NP[Dap]L[d(cisHyp)]W[Dab][Trp(1-CH2COOH)][NMeNle][NMeNle]LC-X13; thioether N-14) |
| 0.1 to 1.6 µM | CCCCCCCCCCCCCC(=O)N[C@@H](CCC(=O)NCCCC[C@H](NC(=O)CNC(=O)CNC(=O)CNC(=O)CNC(=O)[C@@H]1CSCC(=O)N[C@@H](Cc2ccc(O)cc2)C(=O)N(C)[C@@H](C)C(=O)N[C@@H](CC(N)=O)C(=O)N2CCC[C@H]2C(=O)N[C@@H](Cc2cnc[nH]2)C(=O)N[C@@H](CC(C)C)C(=O)N2C[C@H](O)C[C@H]2C(=O)N[C@@H](Cc2c[nH]c3ccccc23)C(=O)N[C@@H](CO)C(=O)N[C@@H](Cc2c[nH]c3ccccc23)C(=O)N(C)[C@@H](CCCC)C(=O)N(C)[C@@H](CCCC)C(=O)N[C@@H](CCCNC(=N)N)C(=O)N1)C(N)=O)C(=O)O [Example 11114] ({CH2CO}-Y[NMeA]NPHL[Hyp]WSW[NMeNle][NMeNle]RCGGGGK([γGlu-Myristoyl])-NH2; thioether N-14) |

Continued, molecule first:

| Structure (SMILES) | IC50 |
| --- | --- |
| CCCC[C@H]1C(=O)N(C)[C@@H](CCCC)C(=O)N[C@@H](CC(C)C)C(=O)N[C@H](C(=O)NCC(=O)NCC(=O)NCCCCCCCCCCC(=O)O)CSCC(=O)N[C@@H](Cc2ccc(O)cc2)C(=O)N(C)[C@@H](C)C(=O)N[C@@H](CC(N)=O)C(=O)N2CCC[C@H]2C(=O)N[C@@H](Cc2cnc[nH]2)C(=O)N[C@@H](CCC(=O)O)C(=O)N2C[C@H](O)C[C@H]2C(=O)N[C@@H](Cc2c[nH]c3ccccc23)C(=O)N[C@@H](CCN)C(=O)N[C@@H](CC2=CC(CC(=O)O)c3ccccc32)C(=O)N1C (stereo partly drawn) [Example 11078] ({CH2CO}-Y[NMeA]NPHE[Hyp]W[Dab][Ala(1-CH2COOH-inden-3-yl)][NMeNle][NMeNle]LCGG[Aun]-OH; thioether N-14) | 0.0003 to 0.0099 µM |
| CCCCCCCC[C@H](NC(=O)CNC(=O)CNC(=O)CNC(=O)[C@@H]1CSCC(=O)N[C@@H](Cc2ccc(O)cc2)C(=O)N(C)[C@@H](C)C(=O)N[C@@H](CC(N)=O)C(=O)N2CCC[C@H]2C(=O)N[C@@H](CN)C(=O)N[C@@H](CC(C)C)C(=O)N2C[C@H](O)C[C@H]2C(=O)N[C@@H](Cc2c[nH]c3ccccc23)C(=O)N[C@@H](CCN)C(=O)N[C@@H](Cc2cn(CC(=O)O)c3ccccc23)C(=O)N(C)[C@@H](CCCC)C(=O)N(C)[C@@H](CCCC)C(=O)N[C@@H](CC(C)C)C(=O)N1)C(=O)O [Example 11103] ({CH2CO}-Y[NMeA]NP[Dap]L[Hyp]W[Dab][Trp(1-CH2COOH)][NMeNle][NMeNle]LCGGG[Gly(octyl)]-OH; thioether N-14) | 0.01 to 0.099 µM |
